ChEMBL document CHEMBL1201862, “PubChem BioAssay data set” (2004)
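Briefly, cells in 96-well plates were exposed to five compound concentrations for 48 h, and endpoints were estimated by linear interpolation. GI50 is the concentration that inhibits growth by half.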 The source made the active and inactive calls. Cut-off read from the data, not from the text of the source: active = GI50 up to about 1.1 µM and inactive = higher.

Legend:
Assay in all cases: DTP human tumour cell line panel, 48 h
[1] = system: ACHN
[2] = system: HCC 2998
[3] = system: OVCAR-4
[4] = system: HL-60
[5] = system: RXF 393
[6] = system: MOLT-4
[7] = system: BT-549
[8] = system: CAKI-1
[9] = system: HCT-15
[10] = system: SNB-19
[11] = system: OVCAR-8
[12] = system: UACC-257
[13] = system: SF-539
[14] = system: TK-10
[15] = system: NCI-H522
[16] = system: T47D
[17] = system: M14
[18] = system: EKVX
[19] = system: NCI/ADR-RES
[20] = system: NCI-H460

Measured: GI50

CCCCCCCC/C=C\CCCCCCCCNc1ccn(C2OC(COP(=O)(O)OC3CC(n4cc(F)c(=O)[nH]c4=O)OC3CO)C(O)C2O)c(=O)n1 (stereo unspecified)
2.48 µM: [9]
active: [1] 0.0177 µM | [6] 0.471 µM | [10] 0.376 µM | [11] 0.329 µM | [13] < 0.0484 µM | [17] 0.315 µM
inactive: [2] > 100 µM | [3] > 91.8 µM | [4] 1.25 µM | [5] 9.62 µM | [7] 20.9 µM | [8] 2.09 µM | [12] > 37.7 µM | [14] > 100 µM | [15] > 53.8 µM | [16] 36.3 µM | [18] > 100 µM | [19] 3.36 µM

c1ccc(C2=NN(c3nc4ccccc4s3)C3(CCCCC3)N2)nc1
32.8 µM: [9]
inactive: [1] 29.9 µM | [3] 24.8 µM | [4] 25.2 µM | [5] 21.9 µM | [6] 4.01 µM | [7] 20.5 µM | [20] 15.2 µM | [8] 29.4 µM | [10] 40.2 µM | [11] 31.8 µM | [12] 16.7 µM | [13] 46.3 µM | [14] 21.8 µM | [15] 26.5 µM | [16] 7.64 µM | [17] 21.4 µM | [18] 33.9 µM | [19] 19.7 µM

CC1=CC(=O)/C(=C/NC(=S)Nc2ccc(S(N)(=O)=O)cc2)C(=O)O1
inactive: [1] > 100 µM | [2] > 100 µM | [3] > 100 µM | [4] > 100 µM | [5] 83.6 µM | [6] > 100 µM | [7] > 100 µM | [20] > 100 µM | [8] > 100 µM | [10] > 100 µM | [11] > 100 µM | [12] > 100 µM | [13] > 100 µM | [14] > 100 µM | [16] > 100 µM | [17] > 100 µM | [18] > 100 µM | [19] > 100 µM
> 100 µM: [9]

CC(O)CNC(=O)Nc1c(C(F)(F)F)cc(-c2ccccc2)[nH]c1=O (stereo unspecified)
> 100 µM: [9]
inactive: [1] > 100 µM | [2] > 100 µM | [3] > 100 µM | [5] > 100 µM | [6] > 100 µM | [7] > 100 µM | [20] > 100 µM | [8] > 100 µM | [10] > 100 µM | [11] > 100 µM | [12] > 100 µM | [14] > 100 µM | [15] > 100 µM | [16] > 100 µM | [17] > 100 µM | [18] > 100 µM | [19] > 100 µM
active: [4] 0.343 µM

O=C(CNS(=O)(=O)Cc1ccccc1)NNc1ccccc1
> 100 µM: [9]
inactive: [1] > 100 µM | [2] > 100 µM | [3] > 100 µM | [4] 3.44 µM | [5] > 100 µM | [6] > 100 µM | [7] > 100 µM | [20] 25.1 µM | [8] 5.6 µM | [10] > 100 µM | [11] > 100 µM | [12] > 78.2 µM | [13] 3.05 µM | [14] > 100 µM | [16] > 42.3 µM | [17] > 63.7 µM | [18] > 69.5 µM | [19] > 100 µM

CC(=O)Oc1ccn2nc(C)c(Br)c2c1
inactive: [1] > 100 µM | [2] > 100 µM | [3] > 100 µM | [4] 25.9 µM | [5] 65.3 µM | [6] 43 µM | [7] > 100 µM | [20] 98.2 µM | [10] > 100 µM | [11] > 64.4 µM | [12] 36.2 µM | [13] > 100 µM | [14] > 100 µM | [15] 28.8 µM | [16] 99.1 µM | [17] > 100 µM | [18] > 83.2 µM | [19] > 100 µM
65.2 µM: [9]

CN1CCN(c2ccc3nc(C4=C(O)C(=O)c5c(nc(CCl)n5C)C4=O)[nH]c3n2)CC1
38 µM: [9]
active: [16] 0.796 µM
inactive: [1] 10.3 µM | [2] 5.89 µM | [3] 15.7 µM | [4] > 50 µM | [5] 2.73 µM | [6] 21.8 µM | [7] 9.79 µM | [20] 20.2 µM | [8] 13.5 µM | [10] 8.95 µM | [11] 8.05 µM | [12] 12.4 µM | [13] > 50 µM | [15] 1.56 µM | [17] 9.4 µM | [18] 21.7 µM | [19] > 50 µM

c1ccc([P+](c2ccccc2)(c2ccccc2)C2c3ccccc3-c3ccccc32)cc1
3.01 µM: [9]
inactive: [1] 2.35 µM | [2] 2.6 µM | [4] 1.16 µM | [5] 1.86 µM | [6] 1.67 µM | [7] 2.94 µM | [20] 1.83 µM | [8] 3.46 µM | [10] 2.79 µM | [11] 2.81 µM | [12] 2.31 µM | [13] 2.75 µM | [14] 2.53 µM | [15] 2.19 µM | [16] 2.71 µM | [17] 3.14 µM | [19] 15.3 µM

C(=C/c1nnnn1-c1ccccc1)/Nc1ccccc1
inactive: [1] 28.1 µM | [2] 21.7 µM | [4] 41.2 µM | [5] 53 µM | [6] 21.7 µM | [7] 17.4 µM | [20] 49.8 µM | [8] 43 µM | [10] 26.7 µM | [11] 29.5 µM | [12] 36.5 µM | [13] 23.3 µM | [14] 34.4 µM | [15] 20.8 µM | [16] 29.6 µM | [17] 26.1 µM | [18] 40.6 µM | [19] 24.6 µM
21.5 µM: [9]

Clc1ccc(-c2cc3nc4ccccc4nc3o2)cc1
> 100 µM: [9]
inactive: [1] 25.4 µM | [2] > 100 µM | [3] > 100 µM | [4] > 100 µM | [5] 32.5 µM | [6] > 100 µM | [7] 35 µM | [20] > 100 µM | [8] > 100 µM | [10] 31.6 µM | [11] 32.6 µM | [12] 34.8 µM | [13] 53.3 µM | [14] 32.7 µM | [16] > 100 µM | [17] > 100 µM | [18] > 100 µM | [19] 52.5 µM

CC(C)[Si](OC1=C(c2ccccc2)C(NC(=O)/C=C/c2ccc([N+](=O)[O-])cc2)CCC1)(C(C)C)C(C)C (stereo unspecified)
inactive: [2] > 100 µM | [4] > 100 µM | [5] > 100 µM | [6] > 100 µM | [7] > 100 µM | [20] > 100 µM | [10] > 100 µM | [11] > 100 µM | [12] > 100 µM | [13] > 100 µM | [14] > 100 µM | [15] > 100 µM | [16] > 100 µM | [17] > 100 µM | [18] > 100 µM | [19] > 100 µM
> 100 µM: [9]
